In the supplement of paper PMC12317010:
Where a name gives a salt, the structure may show the parent alone.

Assay: collision cross section in nitrogen (drift tube, single-field); higher = larger gas-phase ion size
[1] = ion type: [M+H], ion source: APCI, ion mode: Positive
[2] = ion type: [M+H], ion source: ESI, ion mode: Positive
[3] = ion type: [M+Na], ion source: ESI, ion mode: Positive
[4] = ion type: [M-H], ion source: ESI, ion mode: Negative
[5] = ion type: [M+], ion source: APCI, ion mode: Positive
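Further: chemical standards at 10 µM analysed by drift tube IMS-QTOF MS in about 3.95 torr nitrogen, mean of duplicate injections differing ≤1%, mass error below 10 ppm.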

Row | SMILES | collision cross section in nitrogen [1] | collision cross section in nitrogen [2] | collision cross section in nitrogen [3] | collision cross section in nitrogen [4] | collision cross section in nitrogen [5]
1 | CN(C)CCCN1c2ccccc2Sc2ccc(Cl)cc21 [Chlorpromazine hydrochloride] | 170.8 Å² | 171.2 Å² | – | – | –
2 | CNCc1ccc(NC(=O)c2c[nH]c3c2C(=O)CCC3)cc1 | – | – | 182.6 Å² | 178.1 Å² | –
3 | CCCc1c(OCCCOc2ccc(OCC(=O)O)cc2)ccc(C(C)=O)c1O | – | 186.1 Å² | 191.7 Å² | 190.5 Å² | –
4 | CC1=NN(c2ccc(C)cc2)C(=O)C1 [3-Methyl-1-p-tolyl-5-pyrazolone] | – | 142.9 Å² | 156.9 Å² | 144.4 Å² | –
5 | CCC(CO)(CO)COCC(CC)(CO)CO [2,2'-(Oxydimethanediyl)bis(2-ethylpropane-1,3-diol)] | – | – | 159.6 Å² | 158.6 Å² | –
6 | O=C(O)CCCCCCCC(=O)O [Nonanedioic acid] | – | – | – | 140.7 Å² | –
7 | CCC(C(=O)NC(N)=O)c1ccccc1 (stereo not given) [Ethylphenylacetylurea] | – | – | – | 151 Å² | –
8 | Oc1ccncc1 [4-Pyridinol] | 116 Å² | 116.2 Å² | – | 113.9 Å² | –
9 | CC(O)COC(C)COC(C)CO (stereo not given) [Tripropylene glycol] | – | – | 144.9 Å² | – | –
10 | O=c1ccc2ccc(O)cc2o1 [Umbelliferone] | – | – | – | 127.4 Å² | –
11 | CNC(=O)Oc1ccc2c(c1)[C@]1(C)CCN(C)[C@@H]1N2C [Physostigmine] | 169.6 Å² | 169.8 Å² | 169.6 Å² | – | –
12 | CCN(CC)C(=O)c1cc(S(=O)(=O)Cc2ccccc2)c(N2CCC(c3ccccc3)CC2)cc1N(CC)CCN(C)C [HMR1171 trifluoroacetate (1:1)] | 249.1 Å² | 249.1 Å² | 251.8 Å² | 250 Å² | –
13 | CCCCCCCc1ccc(O)cc1 [4-Heptylphenol] | – | – | – | 157.1 Å² | –
14 | Cc1cc(=O)[nH]c(=O)[nH]1 [6-Methyluracil] | – | – | – | 120.5 Å² | –
15 | C[C@]12C[C@H](O)[C@H]3[C@@H](CCC4=CC(=O)CC[C@@]43C)[C@@H]1CC[C@@H]2C(=O)CO [Corticosterone] | – | – | 212.4 Å² | – | –
16 | CCOP(=S)(OCC)SCn1nnc2ccccc2c1=O [Azinphos-ethyl] | – | – | 177.9 Å² | – | –
17 | CCCCCCCCCCCCCC(=O)OCC(O)CO (racemic) [(+/-)-2,3-Dihydroxypropyl tetradecanoate] | – | – | 183.7 Å² | – | –
18 | CC(=NNC(=O)Nc1cc(F)cc(F)c1)c1ncccc1C(=O)O [Diflufenzopyr-sodium] | – | – | 182.3 Å² | – | –
19 | CC(C)(C)NC[C@H](O)COc1nsnc1N1CCOCC1 [Timolol maleate salt] | 176.1 Å² | 176.5 Å² | 172.7 Å² | – | –
20 | OCCOCCOCCOCCOCCO [Pentaethylene glycol] | – | – | 150.1 Å² | – | –
21 | O=[N+]([O-])c1ccccc1O [Sodium 2-nitrophenolate] | – | – | – | 121.6 Å² | –
22 | CCCCCCCCC(=O)OCC(C)OC(=O)CCCCCCCC (stereo not given) [Propylene glycol dipelargonate] | – | – | 207.9 Å² | – | –

Row | SMILES | collision cross section in nitrogen [1] | collision cross section in nitrogen [2] | collision cross section in nitrogen [3] | collision cross section in nitrogen [4] | collision cross section in nitrogen [5]
23 | C[As+](C)(C)CC(=O)[O-] [Arsenobetaine] | – | 118 Å² | – | – | –
24 | c1ccc2c(c1)-c1ccc3ccc4cccc5cc-2c1c3c45 [Indeno[1,2,3-cd]pyrene] | – | – | – | – | 156.7 Å²
25 | c1ccc(Nc2ccc3ccccc3c2)cc1 [N-Phenyl-2-naphthylamine] | 150 Å² | 151.3 Å² | – | – | 149.2 Å²
26 | Fc1ccccc1[C@@H](F)CO[C@H]1CC[C@H](Nc2[nH]cnc3nncc2-3)CC1 [MK-968] | 187.8 Å² | 187.7 Å² | 191.4 Å² | 198.9 Å² | –
27 | COc1ccc(OC)c(N=Nc2c(O)ccc3ccccc23)c1 [C.I. Solvent Red 80] | 171.6 Å² | 171.6 Å² | – | 177.5 Å² | –
28 | C=C(c1ccc(C(=O)O)cc1)c1cc2c(cc1C)C(C)(C)CCC2(C)C [Bexarotene] | – | – | – | 208.7 Å² | –
29 | COCCOC[C@H](CC1(C(=O)N[C@H]2CC[C@@H](C(=O)O)CC2)CCCC1)C(=O)Oc1ccc2c(c1)CCC2 [Candoxatril] | 224.2 Å² | 224.4 Å² | 222.5 Å² | 226.4 Å² | –
30 | Nc1ccc(Oc2ccc(N)c(N)c2)cc1 [3,4,4'-Triaminodiphenyl ether] | 159.9 Å² | – | – | – | –
31 | CCOP(=S)(OCC)Oc1ccc(S(C)=O)cc1 (stereo not given) [Fensulfothion] | – | 174.5 Å² | 169.7 Å² | – | –
32 | O=S(=O)(O)c1ccc(Cl)cc1 [4-Chlorobenzenesulphonic acid] | – | – | – | 133.5 Å² | –
33 | CCCCOCCOCCOC(=O)CCCCC(=O)OCCOCCOCCCC [Bis[2-(2-butoxyethoxy)ethyl] adipate] | 203.8 Å² | 205.4 Å² | 198.8 Å² | – | –
34 | CCOC(=O)C(C)OC(=O)c1cc(Oc2ccc(C(F)(F)F)cc2Cl)ccc1[N+](=O)[O-] (stereo not given) [Lactofen] | – | – | 212.7 Å² | 196 Å² | –
35 | O=S(=O)(O)C(F)(F)C(F)(F)C(F)(F)C(F)(F)C(F)(F)C(F)(F)C(F)(F)C(F)(F)F [Lithium perfluorooctanesulfonate] | – | – | – | 168.3 Å² | –
36 | S=c1[nH]c2ccccc2[nH]1 [2-Mercaptobenzimidazole] | 128 Å² | 127.8 Å² | – | 127.1 Å² | 125.7 Å²
37 | CC(CCOC(=O)c1ccccc1C(=O)OCC[C@@H](C)CC(C)(C)C)CC(C)(C)C (stereo not given in full) [Bis(3,5,5-trimethylhexyl) phthalate] | – | – | 219.6 Å² | – | –
38 | O=S(O)CO [Hydroxymethanesulfinic acid monosodium salt dihydrate] | – | – | – | 112.7 Å² | –
39 | COP(=O)(OC)O/C(=C\Cl)c1cc(Cl)c(Cl)cc1Cl [Z-Tetrachlorvinphos] | – | – | 177.9 Å² | – | –
40 | CCCSP(=O)(OCC)Oc1ccc(Br)cc1Cl (stereo not given) [Profenofos] | – | 169.5 Å² | 184.3 Å² | – | –
41 | CNC(=O)Oc1ccccc1C1OCCO1 [Dioxacarb] | – | – | 151.9 Å² | – | –
42 | C[C@@H]1CN(c2c(F)c(N)c3c(=O)c(C(=O)O)cn(C4CC4)c3c2F)C[C@H](C)N1 [Sparfloxacin] | – | 190.2 Å² | – | – | –
43 | O=C(O)c1c(Cl)ccc(Cl)c1Cl [2,3,6-Trichlorobenzoic acid] | – | – | – | 143.9 Å² | –
44 | O=C(O)c1ccccc1Nc1cccc(C(F)(F)F)c1 [Flufenamic acid] | – | – | – | 160.9 Å² | 157.7 Å²

Row | SMILES | collision cross section in nitrogen [1] | collision cross section in nitrogen [2] | collision cross section in nitrogen [3] | collision cross section in nitrogen [4] | collision cross section in nitrogen [5]
45 | C=C(C)C(=O)OCCCCCCCCCCOC(=O)C(=C)C [1,10-Decanediol dimethacrylate] | – | – | 184.9 Å² | – | –
46 | COc1ccnc(CS(=O)c2nc3cc(OC(F)F)ccc3[nH]2)c1OC (stereo not given) [Pantoprazole sodium] | 185.5 Å² | 185.2 Å² | 185.5 Å² | 187 Å² | –
47 | CCOP(=S)(OCC)OP(=S)(OCC)OCC [Sulfotep] | – | – | 172.2 Å² | – | –
48 | O=c1oc2ccccc2c(O)c1C(CC(O)c1ccc(-c2ccc(Br)cc2)cc1)c1ccccc1 (stereo not given) [Bromadiolone] | – | – | 239.5 Å² | 215.1 Å² | –
49 | CCN(CC)c1ccc(C=O)cc1 [4-(Diethylamino)benzaldehyde] | 139.4 Å² | 140.3 Å² | – | – | –
50 | CCCCCCOC(=O)c1ccccc1C(=O)OCCCCCC [Dihexyl phthalate] | – | – | 202.6 Å² | – | –
51 | CCCCCCCCCC(=O)O [Decanoic acid] | – | – | – | 149.5 Å² | –
52 | CN(N=O)c1ccccc1 [N-Methyl-N-nitrosoaniline] | 124.5 Å² | 125.1 Å² | – | – | –
53 | CNC(=O)Oc1ccc(N(C)C)c(C)c1 [Aminocarb] | 151.6 Å² | 152.2 Å² | 155.8 Å² | – | –
54 | CN(C)C(=O)Nc1ccc(Cl)cc1 [Monuron] | 142.7 Å² | 143 Å² | – | 142.4 Å² | –
55 | CCCCC(CC)COC(=O)c1ccc(O)cc1 (stereo not given) [2-Ethylhexyl p-hydroxybenzoate] | – | – | – | 169.9 Å² | –
56 | CCCCOC(=O)CCCCC(=O)OCCCC [Dibutyl adipate] | – | – | 180.8 Å² | – | –
57 | COc1nc(C)nc(N)n1 [2-Amino-4-methoxy-6-methyl-1,3,5-triazine] | 122.7 Å² | 123.4 Å² | – | – | –
58 | c1ccc(Nc2ccccc2)cc1 [Diphenylamine] | – | 137.8 Å² | – | – | 133.9 Å²
59 | CCCCC(CC)COP(=O)(O)OCC(CC)CCCC (stereo not given) [Bis(2-ethylhexyl) phosphate] | – | – | 201 Å² | 187 Å² | –
60 | Oc1ccc(Cl)cc1Cc1ccccc1 [Clorophene] | – | – | – | 149.3 Å² | –
61 | O=C(Nc1ccccc1)Nc1cnns1 [Thidiazuron] | 148.4 Å² | 147.9 Å² | – | – | –
62 | O=c1[nH]cc(F)c(=O)[nH]1 [5-Fluorouracil] | – | – | – | 115.4 Å² | –
63 | O=C(O)c1cc(N=Nc2ccc(S(=O)(=O)Nc3ccccn3)cc2)ccc1O [Sulfasalazine] | 203.9 Å² | 203.6 Å² | – | 197.5 Å² | –
64 | COc1cc(O)c(C(=O)c2ccccc2)cc1S(=O)(=O)O [Sulisobenzone] | – | – | – | 168.1 Å² | –
